Reference: patent US20050019765A1, “Methods for treating disorders of the nervous and reproductive systems” (priority 2001, published 2005)

System: murine sperm
Assay: chlortetracycline assay for capacitation of murine sperm in vitro
Type: cell-based
Source text: ABCA1 generates HDL by transferring cholesterol onto apoprotein-A1 (apoA1) in a process known as cholesterol efflux, which is also an essential component of male fertility. Sperm are made in the testes and released into the epididymis, where they await ejaculation into the female reproductive tract. Although differentiated, epididymal sperm are not capable of fertilization and must first complete their maturation in the female reproductive tract. This maturation process is known as capacitation and is known to require efflux of cholesterol from the sperm plasma membrane. How this occurs at the molecular level is not well understood. The present invention relies in part on the discovery that ABCA1 is highly expressed in the testes (being present in Sertoli and Leydig cells as well as in differentiating spermatids). […] In accordance with the present invention, ABCA1 is also present in epididymal sperm where it can act to transport cholesterol during capacitation. In vivo, follicular HDL is an endogenous cholesterol acceptor for capacitating sperm, and HDL can stimulate capacitation in vitro. In accordance with the present invention, because cholesterol efflux through ABCA1 is dependent upon apoA1 the ability of apoA1 to stimulate capacitation of murine sperm in vitro was tested using a chlortetracycline assay.

For “de-lipidated apoA1: apoprotein-A1, the acceptor onto which ABCA1 transfers cholesterol in cholesterol efflux”, the “ability to stimulate capacitation of murine sperm” value was “capacitates sperm in a dose-dependent manner”.
